According to article PMC10893631, “Receptor-based pharmacophore modeling, molecular docking, synthesis and biological evaluation of novel VEGFR-2, FGFR-1, and BRAF multi-kinase inhibitors” (BMC Chemistry, 2024):

Columns and labels:
Assay in all cases: NCI SRB growth inhibition (single dose 10 µM / five-dose)
Assay type in all cases: cell-based, human
[1] = system: RPMI-8226; settings: Homo sapiens; for inhibition at 10 µM: RPMI-8226 (Leukemia), read-out: GI%; for GI50: RPMI-8226, Leukemia, five-dose
Outline: (§1)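 Two-stage NCI-60 screen: single-dose test first, then five-dose testing. Growth is scored by sulforhodamine B staining of TCA-fixed cells relative to a time-zero plate, and TGI is taken where Ti = Tz.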

[2] = system: OVCAR-4; settings: Homo sapiens; for inhibition at 10 µM: OVCAR-4 (Ovarian cancer), read-out: GI%; for GI50: OVCAR-4, Ovarian cancer, five-dose
Outline: as §1

[3] = system: SF-295; settings: Homo sapiens; for inhibition at 10 µM: SF-295 (CNS cancer), read-out: GI%; for GI50: SF-295, CNS cancer, five-dose
Outline: as §1

[4] = system: OVCAR-3; settings: Homo sapiens; for inhibition at 10 µM: OVCAR-3 (Ovarian cancer), read-out: GI%; for GI50: OVCAR-3, Ovarian cancer, five-dose
Outline: as §1

[5] = system: NCI-H226; settings: Homo sapiens; for inhibition at 10 µM: NCI-H226 (Non-small cell lung cancer), read-out: GI%; for GI50: NCI-H226, Non-small cell lung cancer, five-dose
Outline: as §1

[6] = system: UO-31; settings: Homo sapiens; for inhibition at 10 µM: UO-31 (Renal cancer), read-out: GI%; for GI50: UO-31, Renal cancer, five-dose
Outline: as §1

[7] = system: SNB-75; settings: Homo sapiens; for inhibition at 10 µM: SNB-75 (CNS cancer), read-out: GI%; for GI50: SNB-75, CNS cancer, five-dose
Outline: as §1

[8] = system: SK-OV-3; settings: Homo sapiens; for inhibition at 10 µM: SK-OV-3 (Ovarian cancer), read-out: GI%; for GI50: SK-OV-3, Ovarian cancer, five-dose
Outline: as §1

[9] = system: SK-MEL-5; settings: Homo sapiens; for inhibition at 10 µM: SK-MEL-5 (Melanoma), read-out: GI%; for GI50: SK-MEL-5, Melanoma, five-dose
Outline: as §1

[10] = system: K-562; settings: Homo sapiens, K562; for inhibition at 10 µM: K-562 (Leukemia), read-out: GI%; for GI50: K-562, Leukemia, five-dose
Outline: as §1

[11] = system: IGROV1; settings: Homo sapiens, IGROV-1; for inhibition at 10 µM: IGROV1 (Ovarian cancer), read-out: GI%; for GI50: IGROV1, Ovarian cancer, five-dose
Outline: as §1

[12] = system: DU-145; settings: Homo sapiens; for inhibition at 10 µM: DU-145 (Prostate cancer), read-out: GI%; for GI50: DU-145, Prostate cancer, five-dose
Outline: as §1

[13] = system: PC-3; settings: Homo sapiens; for inhibition at 10 µM: PC-3 (Prostate cancer), read-out: GI%
Outline: as §1

[14] = system: MDA-MB-231/ATCC; settings: Homo sapiens; for inhibition at 10 µM: MDA-MB-231/ATCC (Breast cancer), read-out: GI%; for GI50: MDA-MB-231/ATCC, Breast cancer, five-dose
Outline: as §1

[15] = system: SK-MEL-2; settings: Homo sapiens; for GI50: SK-MEL-2, Melanoma, five-dose
Outline: as §1

[16] = system: CCRF-CEM; settings: Homo sapiens; for inhibition at 10 µM: CCRF-CEM (Leukemia), read-out: GI%; for GI50: CCRF-CEM, Leukemia, five-dose
Outline: as §1

[17] = system: BT-549; settings: Homo sapiens; for inhibition at 10 µM: BT-549 (Breast cancer), read-out: GI%; for GI50: BT-549, Breast cancer, five-dose
Outline: as §1

[18] = system: KM12; settings: Homo sapiens; for inhibition at 10 µM: KM12 (Colon cancer), read-out: GI%; for GI50: KM12, Colon cancer, five-dose
Outline: as §1

[19] = system: M14; settings: Homo sapiens; for inhibition at 10 µM: M14 (Melanoma), read-out: GI%; for GI50: M14, Melanoma, five-dose
Outline: as §1

[20] = system: HT29; settings: Homo sapiens, HT-29; for inhibition at 10 µM: HT29 (Colon cancer), read-out: GI%
Outline: as §1

[21] = system: NCI-H522; settings: Homo sapiens; for inhibition at 10 µM: NCI-H522 (Non-small cell lung cancer), read-out: GI%; for GI50: NCI-H522, Non-small cell lung cancer, five-dose
Outline: as §1

[22] = system: SF-268; settings: Homo sapiens; for inhibition at 10 µM: SF-268 (CNS cancer), read-out: GI%; for GI50: SF-268, CNS cancer, five-dose
Outline: as §1

[23] = system: RXF 393; settings: Homo sapiens; for inhibition at 10 µM: RXF 393 (Renal cancer), read-out: GI%; for GI50: RXF 393, Renal cancer, five-dose
Outline: as §1

[24] = system: SK-MEL-28; settings: Homo sapiens; for inhibition at 10 µM: SK-MEL-28 (Melanoma), read-out: GI%; for GI50: SK-MEL-28, Melanoma, five-dose
Outline: as §1

[25] = system: U251; settings: Homo sapiens, U-251; for inhibition at 10 µM: U251 (CNS cancer), read-out: GI%; for GI50: U251, CNS cancer, five-dose
Outline: as §1

[26] = system: SN12C; settings: Homo sapiens; for GI50: SN12C, Renal cancer, five-dose
Outline: as §1

## COc1ccc(-c2nc3cc(C(=O)NN=Cc4ccccc4O)ccc3[nH]2)cc1 [8h, N'-(2-Hydroxybenzylidene)-2-(4-methoxyphenyl)-1H-benzo[d]imidazole-5-carbohydrazide]
[1]
  inhibition at 10 µM: 96.7%
  GI50: 1390 nM
[2]
  inhibition at 10 µM: > 100%
  GI50: 2240 nM
[3]
  inhibition at 10 µM: > 100%
  GI50: 1260 nM
[4]
  inhibition at 10 µM: > 100%
  GI50: 1980 nM
[5]
  inhibition at 10 µM: > 100%
  GI50: 6940 nM
[6]
  inhibition at 10 µM: > 100%
  GI50: 1700 nM
[7]
  inhibition at 10 µM: 95.6%
  GI50: 390 nM
[8]
  inhibition at 10 µM: > 100%
  GI50: 7300 nM
[9]
  inhibition at 10 µM: > 100%
  GI50: 1730 nM
[10]
  inhibition at 10 µM: 99.5%
  GI50: 1360 nM
[11]
  inhibition at 10 µM: > 100%
  GI50: 2260 nM
[12]
  inhibition at 10 µM: > 100%
  GI50: 2330 nM
[13]
  inhibition at 10 µM: > 100%
[13]; PC-3, Prostate cancer, five-dose
  GI50: 1770 nM
[14]
  inhibition at 10 µM: 98.7%
  GI50: 4480 nM
[15]
  GI50: 5170 nM
[16]
  inhibition at 10 µM: 94.3%
  GI50: 920 nM
[17]
  inhibition at 10 µM: > 100%
  GI50: 6990 nM
[18]
  inhibition at 10 µM: > 100%
  GI50: 4240 nM
[19]
  inhibition at 10 µM: > 100%
  GI50: 3650 nM
[20]
  inhibition at 10 µM: > 100%
[21]
  inhibition at 10 µM: > 100%
  GI50: 1540 nM
[22]
  inhibition at 10 µM: > 100%
  GI50: 920 nM
[23]
  inhibition at 10 µM: > 100%
  GI50: 6290 nM
[24]
  inhibition at 10 µM: > 100%
  GI50: 2960 nM
[25]
  inhibition at 10 µM: > 100%
  GI50: 1640 nM
[26]; SN12C (Renal cancer), 10 µM, read-out: GI%
  inhibition at 10 µM: > 100%
[26]
  GI50: 4990 nM

## COc1ccc(-c2nc3cc(C(=O)NN=Cc4cccc(OC)c4)ccc3[nH]2)cc1 [8j, N'-(3-Methoxybenzylidene)-2-(4-methoxyphenyl)-1H-benzo[d]imidazole-5-carbohydrazide]
[1]
  inhibition at 10 µM: > 100%
  GI50: 4140 nM
[2]
  inhibition at 10 µM: > 100%
  GI50: 2010 nM
[3]
  inhibition at 10 µM: 167%
  GI50: 2930 nM
[4]
  inhibition at 10 µM: > 100%
  GI50: 2050 nM
[5]
  inhibition at 10 µM: 98.3%
  GI50: 2130 nM
[6]
  inhibition at 10 µM: 98.9%
  GI50: 1780 nM
[7]
  inhibition at 10 µM: > 100%
  GI50: 1780 nM
[8]
  inhibition at 10 µM: 68.3%
  GI50: 5390 nM
[9]
  inhibition at 10 µM: > 100%
  GI50: 3450 nM
[10]
  inhibition at 10 µM: 88.1%
  GI50: 6920 nM
[11]
  inhibition at 10 µM: > 100%
  GI50: 3490 nM
[12]
  inhibition at 10 µM: > 100%
  GI50: 3280 nM
[13]
  inhibition at 10 µM: > 100%
[14]
  inhibition at 10 µM: > 100%
  GI50: 2430 nM
[15]; SK-MEL-2 (Melanoma), 10 µM, read-out: GI%
  inhibition at 10 µM: 81%
[15]
  GI50: 10600 nM
[16]
  inhibition at 10 µM: 35%
  GI50: 7910 nM
[17]
  inhibition at 10 µM: 29.8%
  GI50: 5470 nM
[18]
  inhibition at 10 µM: > 100%
  GI50: 4340 nM
[19]
  inhibition at 10 µM: 70.4%
  GI50: 3420 nM
[20]
  inhibition at 10 µM: > 100%
[20]; HT29, Colon cancer, five-dose
  GI50: 2800 nM
[21]
  inhibition at 10 µM: 89.7%
  GI50: 3300 nM
[22]
  inhibition at 10 µM: 84.7%
  GI50: 3280 nM
[23]
  inhibition at 10 µM: > 100%
  GI50: 2260 nM
[24]
  inhibition at 10 µM: 64.2%
  GI50: 3930 nM
[25]
  inhibition at 10 µM: > 100%
  GI50: 2180 nM
[26]
  GI50: 2780 nM
